The supplement of paper PMC10307832

Key:
Experiment in all cases: relative viability (nuclei count vs DMSO), 5 days (fraction); higher = more cells survive
Ruxolitinib + Pictilisib = compound: N#CC[C@H](C1CCCC1)n1cc(-c2ncnc3[nH]ccc23)cn1 [Ruxolitinib] + CS(=O)(=O)N1CCN(Cc2cc3nc(-c4cccc5[nH]ncc45)nc(N4CCOCC4)c3s2)CC1 [Pictilisib] (partner 1 µM)
Outline: (§1)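 One day after seeding in 1536-well plates, lung cancer cell lines were dosed by pin tool. Dosing was either single-drug or a fixed anchor-drug dose plus five library-drug doses (not always all listed) in √10 steps. After 5 days, nuclei were stained in one fix-and-stain step and counted on 4× images, and relative viability is the nuclei count of treated wells over that of vehicle wells, given as the median of duplicate plates.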

Ruxolitinib + Olaparib = compound: N#CC[C@H](C1CCCC1)n1cc(-c2ncnc3[nH]ccc23)cn1 [Ruxolitinib] + O=C(c1cc(Cc2n[nH]c(=O)c3ccccc23)ccc1F)N1CCN(C(=O)C2CC2)CC1 [Olaparib] (partner 8 µM)
Outline: as §1

Vismodegib + Olaparib = compound: CS(=O)(=O)c1ccc(C(=O)Nc2ccc(Cl)c(-c3ccccn3)c2)c(Cl)c1 [Vismodegib] + O=C(c1cc(Cc2n[nH]c(=O)c3ccccc23)ccc1F)N1CCN(C(=O)C2CC2)CC1 [Olaparib] (partner 8 µM)
Outline: as §1

Vismodegib + OSI-027 = compound: CS(=O)(=O)c1ccc(C(=O)Nc2ccc(Cl)c(-c3ccccn3)c2)c(Cl)c1 [Vismodegib] + COc1cccc2cc(-c3nc([C@H]4CC[C@H](C(=O)O)CC4)n4ncnc(N)c34)[nH]c12 [OSI-027] (partner 0.5 µM)
Outline: as §1

Row | Cell Line | relative viability (Ruxolitinib + Pictilisib; first compound 0.08 µM) | relative viability (Ruxolitinib + Pictilisib; first compound 0.253 µM) | relative viability (Ruxolitinib + Pictilisib; first compound 0.8 µM) | relative viability (Ruxolitinib + Pictilisib; first compound 2.53 µM) | relative viability (Ruxolitinib + Pictilisib; first compound 8 µM) | relative viability (Ruxolitinib + Olaparib; first compound 0.08 µM) | relative viability (Ruxolitinib + Olaparib; first compound 0.253 µM) | relative viability (Ruxolitinib + Olaparib; first compound 0.8 µM) | relative viability (Ruxolitinib + Olaparib; first compound 2.53 µM) | relative viability (Ruxolitinib + Olaparib; first compound 8 µM) | relative viability (Vismodegib + Olaparib; first compound 0.08 µM) | relative viability (Vismodegib + Olaparib; first compound 0.253 µM) | relative viability (Vismodegib + Olaparib; first compound 0.8 µM) | relative viability (Vismodegib + Olaparib; first compound 2.53 µM) | relative viability (Vismodegib + Olaparib; first compound 8 µM) | relative viability (Vismodegib + OSI-027; first compound 0.08 µM) | relative viability (Vismodegib + OSI-027; first compound 0.253 µM) | relative viability (Vismodegib + OSI-027; first compound 0.8 µM) | relative viability (Vismodegib + OSI-027; first compound 2.53 µM) | relative viability (Vismodegib + OSI-027; first compound 8 µM)
1 | NCI-H358 | 0.413 | 0.343 | 0.342 | 0.268 | 0.265 | 0.494 | 0.544 | 0.534 | 0.495 | 0.442 | 0.564 | 0.597 | 0.525 | 0.521 | 0.667 | 0.775 | 0.711 | 0.8 | 0.807 | 0.853
2 | NCI-H596 | 0.379 | 0.339 | 0.387 | 0.418 | 0.386 | 0.761 | 0.71 | 0.844 | 0.696 | 0.751 | 0.749 | 0.488 | 0.653 | 0.706 | 0.844 | 0.791 | 0.634 | 0.672 | 0.734 | 0.781
3 | 201T | 0.745 | 0.687 | 0.75 | 0.826 | 0.8 | 0.941 | 0.964 | 0.972 | 1.01 | 0.894 | 0.826 | 0.875 | 0.798 | 0.845 | 0.822 | 0.834 | 0.741 | 0.733 | 0.731 | 0.747
4 | HOP-62 |  | 0.743 | 0.876 | 0.63 | 0.839 |  | 0.389 | 0.381 | 0.315 | 0.416 | 0.403 | 0.47 | 0.387 | 0.396 | 0.345 | 0.841 | 0.812 | 0.793 | 0.8 | 0.899
5 | NCI-H1975 | 0.302 | 0.254 | 0.285 | 0.243 | 0.231 | 0.854 | 0.786 | 0.716 | 0.675 | 0.421 | 0.736 | 0.788 | 0.788 | 0.83 | 0.791 | 0.724 | 0.633 | 0.686 | 0.632 | 0.607
6 | NCI-H1755 | 0.425 | 0.43 | 0.469 | 0.329 | 0.297 | 0.897 | 0.812 | 0.925 | 0.772 | 0.792 | 0.863 | 0.884 | 0.897 | 0.843 | 0.852 | 0.782 | 0.688 | 0.73 | 0.689 | 0.634
7 | ChaGo-K-1 |  | 0.555 | 0.668 | 0.776 | 0.727 | 0.42 | 0.445 | 0.379 | 0.347 | 0.319 | 0.452 | 0.436 | 0.455 | 0.398 | 0.405 | 0.663 | 0.546 | 0.554 | 0.619 | 0.516
8 | NCI-H2023 | 0.251 | 0.188 | 0.247 | 0.215 | 0.228 | 0.483 | 0.604 | 0.509 | 0.515 | 0.339 | 0.496 | 0.448 | 0.519 | 0.44 | 0.541 | 0.464 | 0.354 | 0.411 | 0.322 | 0.478
9 | EKVX | 0.323 | 0.385 | 0.451 | 0.44 | 0.521 |  | 0.837 | 0.947 | 0.731 | 0.759 |  | 0.737 | 0.818 | 0.778 | 0.866 | 0.677 | 0.67 | 0.676 | 0.715 | 0.731
10 | LCLC-97TM1 | 0.182 | 0.153 | 0.214 | 0.158 | 0.198 | 0.367 | 0.292 | 0.331 | 0.417 | 0.295 | 0.355 | 0.416 | 0.439 | 0.298 | 0.565 | 0.673 | 0.522 | 0.525 | 0.507 | 0.523
11 | NCI-H2085 | 0.564 | 0.469 | 0.419 | 0.463 | 0.611 | 0.781 | 0.804 | 0.755 | 0.64 | 0.588 | 0.724 | 0.816 | 0.775 | 0.74 | 0.712 | 0.9 | 0.732 | 0.756 | 0.74 | 0.662
12 | BEN | 0.494 | 0.583 | 0.647 | 0.53 | 0.584 | 1.16 | 1.27 | 1.24 | 0.96 | 0.994 | 1.14 | 1.05 | 0.889 | 1.08 | 1.13 | 0.336 | 0.308 | 0.272 | 0.294 | 0.311
13 | HARA | 0.467 | 0.472 | 0.404 | 0.426 | 0.328 | 1.17 | 0.841 | 1.04 | 0.793 | 0.584 | 0.786 |  | 0.945 | 0.856 | 0.943 | 0.702 | 0.47 | 0.529 | 0.492 | 0.466
14 | PC-14 |  | 0.618 | 0.799 | 0.654 | 0.476 |  | 0.302 | 0.233 | 0.353 | 0.298 | 0.262 | 0.175 | 0.254 | 0.248 | 0.254 | 0.748 | 0.686 | 0.797 | 0.738 | 0.836
15 | SW 1573 | 0.495 | 0.425 | 0.546 | 0.445 | 0.429 | 0.518 | 0.586 | 0.473 | 0.416 | 0.352 |  | 0.487 | 0.476 | 0.442 | 0.497 | 0.742 | 0.595 | 0.682 | 0.521 | 0.574
16 | NCI-H1355 | 0.385 | 0.391 | 0.386 | 0.329 | 0.352 | 0.745 | 0.749 | 0.798 | 0.655 | 0.616 | 0.721 | 0.716 | 0.781 | 0.807 | 0.722 | 0.488 | 0.447 | 0.378 | 0.444 | 0.399
17 | NCI-H460 | 0.179 | 0.309 | 0.307 | 0.386 | 0.114 |  | 0.463 | 0.411 | 0.344 | 0.375 | 0.413 | 0.409 | 0.437 | 0.382 | 0.439 | 0.644 | 0.603 | 0.684 | 0.622 | 0.559
18 | NCI-H2126 | 0.493 | 0.472 | 0.531 | 0.55 | 0.582 | 0.923 | 0.933 | 0.958 | 0.879 | 0.811 | 0.887 | 0.966 | 0.928 | 0.849 | 0.969 | 0.793 | 0.759 |  | 0.69 | 0.604
19 | LCLC-103H | 0.58 | 0.597 | 0.592 | 0.524 | 0.597 | 0.774 | 0.753 | 0.786 | 0.837 | 0.758 | 0.759 | 0.757 | 0.73 | 0.733 | 0.832 | 0.462 | 0.461 | 0.364 | 0.476 | 0.476
20 | COR-L 105 | 0.379 | 0.389 | 0.407 | 0.344 | 0.334 |  | 0.614 | 0.652 | 0.614 | 0.606 | 0.605 | 0.64 | 0.69 | 0.698 | 0.537 | 0.683 | 0.63 | 0.771 | 0.739 | 0.658
21 | H3255 | 0.206 | 0.435 | 0.516 | 0.427 | 0.48 | 0.532 | 0.547 | 0.539 | 0.443 | 0.457 | 0.586 | 0.554 | 0.516 | 0.54 | 0.517 | 0.58 | 0.634 | 0.701 | 0.579 | 0.522
22 | NCI-H441 | 0.44 | 0.497 | 0.533 | 0.445 | 0.39 | 0.508 | 0.54 | 0.502 | 0.472 | 0.484 | 0.561 |  | 0.579 | 0.55 | 0.55 | 0.932 | 0.693 | 0.638 | 0.518 | 0.601
23 | NCI-H2347 | 0.437 | 0.637 | 0.554 | 0.485 | 0.674 | 0.527 | 0.627 | 0.644 | 0.599 | 0.572 | 0.579 | 0.548 | 0.621 | 0.615 | 0.597 | 0.568 | 0.454 | 0.304 | 0.425 | 0.454
24 | CAL-12T |  | 0.355 | 0.416 | 0.435 | 0.471 | 0.627 | 0.779 | 0.756 | 0.673 | 0.67 | 0.81 | 0.691 | 0.411 | 0.757 | 0.713 | 0.776 | 0.462 | 0.774 | 0.636 | 0.654
25 | HCC-827 | 0.654 | 0.973 | 0.919 | 0.906 | 0.944 |  | 0.469 | 0.469 | 0.49 | 0.594 | 0.581 | 0.653 | 0.728 | 0.678 | 0.657 | 0.759 | 0.708 | 0.726 | 0.767 | 0.789
26 | NCI-H520 |  | 0.258 | 0.236 | 0.251 | 0.34 | 0.298 | 0.375 | 0.366 | 0.343 | 0.284 | 0.314 | 0.366 | 0.397 | 0.281 | 0.354 | 0.284 | 0.227 | 0.298 | 0.314 | 0.309
27 | A-427 | 0.742 | 0.749 | 0.773 | 0.371 | 0.629 | 0.749 | 0.732 | 0.739 | 0.67 | 0.632 | 0.743 | 0.804 | 0.642 | 0.675 | 0.786 | 0.471 | 0.464 | 0.446 | 0.405 | 0.484
